pKaH data for ten compounds are collected here from patent US20240425630A1, “POLYMER DISPERSION COMPOSITION” (Dow Global Technologies LLC, priority 2021, published 2024).

Read-outs that look alike come from different tables or passages of the source.

The conditions of series [1]: cited from earlier work.
A short description of series [2]: Surfactant pKaH by acid-base titration. An excerpt: Surfactant pKaH values were either collected from literature sources or measured according to the method described herein. The surfactant (1 g) was mixed with deionized water (60 g). Next, preparation steps were taken to convert all of the surfactants to their respective salt forms. Surfactants which are already in fully neutralized salt form (e.g., Geropon CG 3S, Geropon LG 3S, and Aminosyl SLG) were titrated “as is” (i.e., as received from the supplier). Surfactants in acid form were mixed with enough aqueous 0.5 M KOH (potassium hydroxide) to increase the solution pH to a pH of 10. Sodium lauroyl lactylate (Capmul S12L, 1 g) was mixed with 1.4 g TERGITOL™15-S-40 (70%), followed by enough aqueous 0.5 M KOH (potassium hydroxide) to increase the solution pH to a pH of 10. After the respective preparation steps above, the surfactant solutions were titrated with 0.5 M HCl to pH 2 while recording the pH and the amount of 0.5 M HCl added using a titrator, Mettler Toledo T70.

Setting [3] is: literature data (footnotes of Table II).

Take `CCCCCCCCCC(=O)O` [Capric acid (C10), Capric acid]: the pKaH in series [1] (setting [3]) is given as 7.1-7.3. On to `CCCCCCCCCCCC(=O)O` [Lauric acid (C12), Lauric acid], for which the pKaH in series [1] (setting [3]) is given as 7.5. Take `CCCCCCCCCCCCCC(=O)O` [Myristic acid (C14), Myristic acid]: the pKaH in series [1] (setting [3]) is reported as 8.1-8.2.

In series [2], `CCCCCCCCCCCC(=O)N(C)CC(=O)O` [N-Lauroyl sarcosine] had a pKaH of 5.3.

As for `CCCCCCCC/C=C\CCCCCCCC(=O)O` [Oleic acid (C18:1 cis-9), Oleic acid], in series [1] (setting [3]), the pKaH was 9.85. For `CCCCCCCCCCCCCCCC(=O)O` [Palmitic acid (C16), Palmitic acid], the pKaH in series [1] (setting [3]) was 8.6-8.8. For the compound `CCCCCCCCCCCC(=O)OC(C)C(=O)OC(C)C(=O)[O-].[Na+]` (stereo not shown) [Sodium lauroyl lactylate], the pKaH in series [2] (titrated with 0.5 M HCl, pH at mid-point to the equivalence point) is given as 5.25. Take `CCCCCCCCCCCCCCCCCC(=O)O` [Stearic acid (C18), Stearic acid]: the pKaH in series [1] (setting [3]) is 10.15.

As for `CCCCCCCC(=O)O` [n-octanoic acid], in series [1] (setting [3]), the pKaH is reported as 6.3-6.5.

As for sodium dodecylbenzenesulfonate, the pKaH entry in series [1] (stated in the discussion, no source given) was “less than 2.6”.
